# Experimental data from article PMC4503722, “Novel Phenotypic Outcomes Identified for a Public Collection of Approved Drugs from a Publicly Accessible Panel of Assays” (PLoS ONE, 2015).
# Assays:
# [1] = system: INS-1E cells; assay: cells; assay type: cell-based, rat; settings: 5 mM glucose; for 5mMGluc_INS1E SecretionMod IC50/EC50: assay number 8;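 for all read-outs here: secreted insulin quantified by homogeneous immunoassay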
# [2] = system: ECFC/ADSC co-culture cell nuclei number
# [3] = system: NCI-H716 cells; assay: cells; assay type: cell-based, Human
# [4] = system: SW480; assay: cells; assay type: cell-based; settings: assay number 24; basal
# [5] = system: SNU-C1; assay: cells; assay type: cell-based; settings: assay number 30; basal
# [6] = system: RKO; assay: cells; assay type: cell-based; settings: assay number 29; basal
# [7] = system: HCT116; assay: cells; assay type: cell-based; settings: assay number 25; basal
# [8] = system: DLD-1; assay: cells; assay type: cell-based; settings: assay number 23; basal
# [9] = system: HCT116 cells treated with a GSK3β inhibitor; assay: cells; assay type: cell-based; settings: assay number 26; GSK3b inhibitor pretreated
# [10] = system: Colo320; assay: cells; assay type: cell-based; settings: assay number 27; basal
# [11] = system: HT-29; assay: cells; assay type: cell-based; settings: assay number 28; basal
Structure (SMILES),5mMGluc_INS1E SecretionMod IC50/EC50 [1],further results
CN(C)CC/C=C1\c2ccccc2Sc2ccc(Cl)cc21 [NCGC00013683-06],> 33.33 µM,
CN(C)CC[C@H](c1ccc(Cl)cc1)c1ccccn1 [NCGC00015227-08],17.749 µM,
COc1ccc(Cl)cc1C(=O)NCCc1ccc(S(=O)(=O)NC(=O)NC2CCCCC2)cc1 [NCGC00015467-20],,"IC50/EC50, 5mMGluc_INS1E SecretionMod (assay number 8) [1]: 0.00808 µM"
CN1CCN2c3ccccc3Cc3ccccc3C2C1 (stereo not shown) [NCGC00015656-12],> 11.11 µM,
N=c1nc(N2CCCCC2)cc(N)n1O [NCGC00015673-13],,"IC50/EC50, 5mMGluc_INS1E SecretionMod (assay number 8) [1]: > 33.33 µM"
CC(CCc1ccccc1)NC(C)C(O)c1ccc(O)cc1 (stereo not shown) [NCGC00015716-09],14.4759 µM,
COc1ccc(CN(CCN(C)C)c2ccccn2)cc1 [NCGC00015822-15],,"IC50/EC50, 5mMGluc_INS1E SecretionMod (assay number 8) [1]: 15.3614 µM"
CN(C)CCCOc1nn(Cc2ccccc2)c2ccccc12.Cl [NCGC00016397-04],,"IC50/EC50, 5mMGluc_INS1E SecretionMod (assay number 8) [1]: 21.3864 µM"
CC(=O)c1ccc2c(c1)N(CCCN(C)C)c1ccccc1S2 [NCGC00016634-04],11.3835 µM,
CCCCOc1cc(C(=O)OCCN(CC)CC)ccc1N [NCGC00016667-04],15.5055 µM,
O=C(CCCN1CCC(O)(c2ccc(Br)cc2)CC1)c1ccc(F)cc1 [NCGC00016692-05],> 33.33 µM,
COc1ccc2c(c1)C(=O)N(CCc1ccc(S(=O)(=O)NC(=O)NC3CCCCC3)cc1)C(=O)C2(C)C [NCGC00016819-05],0.2299 µM,
CCC1=C(C)CN(C(=O)NCCc2ccc(S(=O)(=O)NC(=O)NC3CCC(C)CC3)cc2)C1=O (stereo not shown) [NCGC00016960-07],0.00406 µM,
COc1ccc2c(c1OC)C(=O)O[C@@H]2[C@H]1c2cc3c(cc2CCN1C)OCO3 [NCGC00017326-05],> 33.33 µM,
Clc1ccc(COC(Cn2ccnc2)c2ccc(Cl)cc2Cl)cc1.O=[N+]([O-])O (stereo not shown) [NCGC00018258-10],,VEGF_ADSC\ECFC Angio Hoechst NucArea IC50/EC50 [2]: 9.932 µM; hNCI-H716 GLP1 Secretion IC50/EC50 ([3]; assay number 12): 25.6136 µM
CN(C)CCOC(C)(c1ccccc1)c1ccccn1.O=C(O)CCC(=O)O (stereo not shown) [NCGC00021147-11],> 33.33 µM,
O=C1NCN(c2ccccc2)C12CCN(CCCOc1ccc(F)cc1)CC2 [NCGC00024633-07],> 33.33 µM,Basal_Viability ATP SW480 IC50/EC50 [4]: 4.608 µM; Basal_Viability ATP SNU-C1 IC50/EC50 [5]: 0.2416 µM; Basal_Viability ATP RKO IC50/EC50 [6]: 5.3051 µM; Basal_Viability ATP HCT116 IC50/EC50 [7]: 8.82 µM; Basal_Viability ATP DLD-1 IC50/EC50 [8]: 0.8817 µM; GSK3b inh pretreated_Viability ATP HCT116 IC50/EC50 [9]: 5.333 µM; Basal_Viability ATP Colo 320 IC50/EC50 [10]: 11.821 µM; Basal_Viability ATP HT-29 IC50/EC50 [11]: 2.458 µM
CCN(CC)CCOc1ccc(Cc2ccccc2)cc1 [NCGC00024762-04],> 33.33 µM,
CNCCCCOc1ccccc1Cc1ccccc1 [NCGC00024778-02],> 33.33 µM,
COc1ccccc1N1CCN(CCCCNC(=O)c2ccc(-c3ccc(C(C)=O)cc3)cc2)CC1 [NCGC00025004-04],> 33.33 µM,
C[C@@H](C1=C(CCN(C)C)Cc2ccccc21)c1ccccn1.O=C(O)/C=C\C(=O)O [NCGC00025158-02],8.4103 µM,
Cc1ccc(C(=O)Nc2ccc(S(=O)(=O)O)c3cc(S(=O)(=O)O)cc(S(=O)(=O)O)c23)cc1NC(=O)c1cccc(NC(=O)Nc2cccc(C(=O)Nc3cc(C(=O)Nc4ccc(S(=O)(=O)O)c5cc(S(=O)(=O)O)cc(S(=O)(=O)O)c45)ccc3C)c2)c1 [NCGC00025177-08],,"IC50/EC50, hNCI-H716 GLP1 Secretion (assay number 12) ([3]; concentration response): > 40 µM"
